Test results published in publication PMC9143043, “Synthesis and Biological Evaluation of 5′-O-Fatty Acyl Ester Derivatives of 3′-Fluoro-2′,3′-dideoxythymidine as Potential Anti-HIV Microbicides” (Molecules, 2022).
Read-outs that look alike come from different tables or passages of the source.

Assays:
[1] = test system: HIV-infected T4 lymphocytes; set-up: method as in PMID 9191015; details: read-out: EC50 against HIV-infected T4 lymphocytes; cited from earlier work
HIV-1 = test: Anti-HIV activity overall (cell-free and cell-associated assays) and antiviral index; type: cell-based; details: for antiviral index, times better than AZT: versus AZT; for antiviral index, times better than FLT: versus FLT
From the text: Table 2, Table 3 and Table 4 illustrate the anti-HIV-1 activities against the cell-free, cell-associated, and multidrug-resistant virus and sperm inhibiting properties of the selected compounds. In summary, the anti-HIV activity of 5′-substituted derivatives of FLT and AZT (5–18) was dependent on the nature of the 5′-substituent. […] None of the other esters were active against cell-associated virus. […] The difference in the activity of fatty acyl derivatives of FLT compared to each other and FLT may be due to their differences in the rate of uptake and intracellular hydrolysis.
By design, the ester moiety in the conjugates needs to be hydrolyzed to render parent nucleosides and fatty acids to produce anti-HIV activity. The anti-HIV activities of 5′-O-ether substituted FLT and AZT (3 and 4, Scheme 2) with a stable tetradecanyl (myristyl) group were compared with hydrolyzable 5′-O-ester substituted FLT and AZT (6 and 7).
(§1) Anti-HIV activities of the compounds were evaluated according to the previously reported procedure. In summary, the HeLa (Human cervical carcinoma: ATCC CCL-2.1) cell line was used to measure the inactivation of both the cell-free virus preparations and virus-infected cell preparations. The cells were plated in culture plates 24 h prior to each experiment. Cell-free viral preparations of HIV-1 strains IIIB (lymphocytotropic strain) and BaL (monocytotropic strain) were used for the cell-free assay. For the cell-associated assay, the SulT1 cells were infected with IIIB virus 5 days prior to the experiment. Cell-free virus and virus-infected cells were mixed with different compounds and diluted to make different concentrations. The mixture was further diluted with the buffer and added to the HeLa cells.

HIV-1 A-17 MDR (B-NNRTI) = test: PBMC multi-round infection assay, resistant isolate A-17; type: cell-based
Procedure: (§2) Based on a preliminary screening, conjugates 5 and 8 were evaluated for their ability to inhibit a drug-resistant virus in a peripheral blood mononuclear cell (PBMC) assay. In this assay, FLT, 5, and 8 were tested against B- and C-wild type and A-17 and 4755–5 multidrug-resistant (MDR) clinical isolates of HIV-1, where compounds were incubated with PBMCs for 6 h and then washed off before the addition of the virus and further culture for 7 days.
(§3) For the assessment of compounds against the wild type (WT; R5; clones = 94US3393IN [B subtype] and 98USMSC5016 [C subtype]) and drug-resistant (clones = 4755−5 and A17) HIV-1 clinical isolates, PHA-P stimulated cells from at least two normal donors were pooled, diluted in fresh media, and plated in the interior wells of a 96-well round-bottom microplate. Pooling PBMCs from more than one donor was used to minimize the variability observed between the individual donors, which results from the quantitative and qualitative differences in HIV infection and overall response to the PHA and IL-2 of primary lymphocyte populations. Each plate contained virus/cell control wells (cells + virus), experimental wells (drug + cells + virus), and compound control wells (drug + media, no cells, necessary for MTS monitoring of cytotoxicity). Test drug dilutions were prepared in microtiter tubes, and each concentration was placed in appropriate wells. Following the addition of the drug dilutions to the PBMCs, a predetermined dilution of virus stock was then placed in each test well (final MOI ≅ 0.1). Because HIV-1 is not cytopathic to PBMCs, the same assay plate can be used for both the antiviral efficacy and cytotoxicity measurements. Compounds were incubated with virus and cells in a 96-well format for 6 h. The cells were then washed by removing 75% of the medium (150 μL) and replacing it with 150 μL of fresh (no drug) medium. The plates were then centrifuged (∼200 g) for 10 min, after which 150 μL of the medium was removed, and an additional 150 μL of fresh medium was added to each well and further incubated for 6 days or until peak reverse transcriptase (RT) activity was detected. A microtiter plate-based RT reaction was utilized. Incorporated radioactivity (counts per minute, CPM) was quantified using standard liquid scintillation techniques. Compound IC50 (50%, inhibition of virus replication) was calculated using statistical software and regression analysis. A cellular uptake study was conducted for fluorescence conjugates 23 and 24 using a previously published procedure with minor modifications. All of the experiments were conducted in triplicate.

sperm = test: Spermicidal activity (sperm viability and motility); type: cell-based; details: abstract; versus N-9 positive control
Procedure: In this study, several fatty acyl conjugates of nucleosides (5–8, 10–12, 15, and 16) were tested for their spermicidal activities. […] Detailed data analysis is available in the Supplementary Materials (Figure S2).
(§4) Human T lymphoblastoid cells (CCRF-CEM, ATCC No. CCL-119) were grown to 70% confluency in a culture medium. CCRF-CEM cells were incubated with 10 µM of the compounds and mixed with trypan blue (0.1%) to color the dead cells. The percentage of viability was calculated by using a Cellometer Auto T.4 (Nexcelom Bioscience). The cell viability against the vaginal cells (VK-2/E6E7) was conducted according to the previously reported procedure. The effect of conjugates on the sperm viability and mobility was evaluated as described previously.

[2] = test system: cell-associated HIV-1 IIIB (infected SulT1 cells); test: Cell-associated transmission assay (IIIB); type: cell-based; details: Human immunodeficiency virus 1, IIIB
Procedure: as §1

[3] = test system: human vaginal cells (VK-2/E6E7); test: Vaginal cell cytotoxicity (MTS assay); type: cell-based; details: 6 h incubation; 31-1000 µg/mL
Procedure: A commercially used spermicidal agent (N-9) and conjugate cytotoxicity was evaluated using immortalized human vaginal cells (VK-2/E6E7). […] Observed cytotoxicity from N-9 could be correlated with the generation of higher levels of cytokines by N-9.
as §4
Figure 2 (A) Dose–response curves of the vaginal cytotoxicity in VK-2 cells (MTS assay) for 5, 6, 8, and N-9 after 6 h incubations. (B) Proinflammatory cytokine (IL-1α) production in the VK-2 cells (ELISA) after a 6 h incubation in the presence of 5, 6, 8, and N-9.

[4] = test system: HIV-1 strain IIIB (lymphocytotropic strain); test: Single-round infection assay, cell-free X4 virus (lymphocytotropic strain); type: cell-based
Procedure: as §1

[5] = test system: HIV-1 94US3393IN (B-Wild Type); test: PBMC multi-round infection assay, clinical isolate 94US3393IN; type: cell-based; details: Human immunodeficiency virus 1
Procedure: as §2, §3

Cytotoxicity assay (MTS) = type: cell-based; details: human, HeLa cells (ATCC CCL-2.1)
HIV-1 4755-5 MDR (B-MDR) = test: PBMC multi-round infection assay, resistant isolate 4755-5; type: cell-based
Procedure: as §2, §3

[6] = test system: HIV-1 98USMSC5016 (C-Wild Type); test: PBMC multi-round infection assay, clinical isolate 98USMSC5016; type: cell-based; details: Human immunodeficiency virus 1
Procedure: as §2, §3

[7] = test system: HIV-1 strain BaL (monocytotropic strain); test: Single-round infection assay, cell-free R5 virus (monocytotropic strain); type: cell-based; details: Human immunodeficiency virus 1, BAL
Procedure: as §1

CCRF-CEM cells [8] = test: Cell viability study (trypan blue, Cellometer); type: cell-based, human; details: 10 µM, 24 h incubation
Procedure: Cell viability study was performed to analyze the effect of FAM, 23, and 24 on the live cells. The CCRF-CEM cells were incubated with 10 µM of the compounds and mixed with trypan blue (0.1%) to color the dead cells. The percentage of viability was calculated by using Cellometer Auto T.4 (Nexcelom Bioscience). It was observed that at least 80% of the cells were viable in the presence of the compounds in a 24 h incubation period (Supporting Materials, Figure S1).
as §4

CCRF-CEM cells [9] = test: Real-time fluorescence microscopy in live cells; type: cell-based, human; details: 10 µM, 1 h
Procedure: Cells incubated with 10 µM of DMSO, FAM, 23 and 24 for 1 h were used for real time fluorescence microscopy using transmitted light microscopy equipped with a differential-interference contrast method and an Achroplan 40× objective.
The products were purified on a Phenomenex®Gemini 10 µm ODS reversed-phase column (2.1 × 25 cm) with a Hitachi HPLC system using a gradient increment in the acetonitrile (0.1%TFA) concentration from 0 to 100% in 45 min at a constant flow rate of 17 mL/min. The purity of the compounds was confirmed by using an analytical Hitachi analytical HPLC system on a C18 column (Grace Allsphere ODS 2–3 µ, 150 × 4.6 mm) using a gradient system (water:acetonitrile 30:70 v/v) at a constant flow rate of 1 mL/min with a UV detection at 265 nm. The chemical structures of the final products were characterized by nuclear magnetic resonance spectrometry (^1H NMR and ^13C NMR) determined on a Bruker NMR spectrometer (400 MHz, Daltonik, Bremen, Germany) and confirmed by a high-resolution PE Applied Biosystems Mariner API time-of-flight electrospray mass spectrometer (Waltham, MA, USA). Chemical shifts are reported in parts per millions (ppm). For cellular uptake studies, cells were analyzed by flow cytometry (FACSCalibur: Becton Dickinson, San Jose, CA, USA) using the FITC channel and CellQuest software 7.5.3 (Becton Dickinson, San Jose, CA, USA). […]

[10] = Human immunodeficiency virus 1, PBMC
[11] = read-out: (CA) EC50, Table 2, cell-associated transmission assay (IIIB)
[12] = Human immunodeficiency virus 1, IIIB, read-out: (X4) EC50, Table 2, single-round infection assay
[13] = Table 2, MTS, 50% effective concentration

For CCSCCCCCCCCCCCC(=O)O [12-thioethyldodecanoic acid], the EC50 [1] is given as 9.4 µM.
For CCSCCCCCCCCCCCC(=O)OC[C@H]1O[C@@H](n2cc(C)c(=O)[nH]c2=O)C[C@@H]1F [Compound 8, 3′-fluoro-2′,3′-dideoxy-5′-O-(12-thioethyldodecanoyl)thymidine], the “anti-HIV activity (in words)” value (HIV-1) was “significant anti-HIV activity at noncytotoxic concentrations”, the “antiviral index, times better than AZT” value (HIV-1) was greater than 30 times and the “antiviral index, times better than FLT” value (HIV-1) was greater than 4 times. For the same compound, the IC50 (HIV-1 A-17 MDR (B-NNRTI); [10]) was 0.0136 µM, the IC90 (HIV-1 A-17 MDR (B-NNRTI); [10]) was 0.0457 µM and the “fold more potent than FLT against A-17” value (HIV-1 A-17 MDR (B-NNRTI); versus FLT IC50) was “twice as active”. The “effect on sperm viability” value (sperm) was “did not alter vaginal cell and sperm viability”, the EC50 [2, 11] was 2.3 µM and the “cytotoxicity to vaginal cells” value [3] was “did not show significant cytotoxic effects”. For the same compound, the EC50 [4, 12] was no more than 1 µM, the EC50 ([4]; read-out: (X4) EC50, Table 2, single-round infection assay) was 1 µM and the IC50 [5] was 0.0006 µM. It also gave an IC90 [5] of 0.0103 µM, an EC50 (Cytotoxicity assay (MTS); [13]) greater than 2000 µM and an IC50 (HIV-1 4755-5 MDR (B-MDR); [10]) of 0.112 µM. For the same compound, the IC90 (HIV-1 4755-5 MDR (B-MDR); [10]) was 0.662 µM, the “fold more potent than FLT against 4755-5” value (HIV-1 4755-5 MDR (B-MDR); versus FLT IC50) was “equally active” and the IC50 [6] was 0.001 µM. For the same compound, the IC90 [6] was 0.0082 µM.
For CCCCCCCCCCCCCC(=O)OC[C@H]1O[C@@H](n2cc(C)c(=O)[nH]c2=O)C[C@@H]1F [Compound 6, 5′-O-(myristoyl)-3′-fluoro-2′,3′-dideoxythymidine], the “anti-HIV activity (in words)” value (HIV-1) was “significant anti-HIV activity at noncytotoxic concentrations”, the “antiviral index, times better than AZT” value (HIV-1) was greater than 30 times and the “antiviral index, times better than FLT” value (HIV-1) was greater than 4 times. The EC50 ([7]; read-out: (R5) EC50, Table 2, single-round infection assay) was no more than 1 µM, the EC50 ([7]; read-out: (R5) EC50, Table 3, viral entry inhibition assay) was 1.1 µM and the “effect on sperm viability” value (sperm) was “did not alter vaginal cell and sperm viability”. For the same compound, the EC50 [2, 11] was 6.4 µM, the EC50 ([2]; read-out: (CA) EC50, Table 3, cell-to-cell transmission assay (IIIB)) was 6.4 µM and the “cytotoxicity to vaginal cells” value [3] was “did not show significant cytotoxic effects”. For the same compound, the EC50 [4, 12] was no more than 1 µM, the EC50 ([4]; Human immunodeficiency virus 1, IIIB, read-out: (X4) EC50, Table 3, viral entry inhibition assay) was 0.7 µM and the EC50 (Cytotoxicity assay (MTS); [13]) was 606 µM. The EC50 (Cytotoxicity assay (MTS); Table 3, conjugates vs physical mixtures) was 606 µM.
In the case of 5(6)-carboxyfluorescein [FAM], the viable cells (CCRF-CEM cells [8]) is reported as “at least 80%” and the “cell fluorescence (real time fluorescence microscopy)” value (CCRF-CEM cells [9]) is reported as “no significant fluorescence”.
